Counter-ions that a name gives are not always drawn. Like-named read-outs stand apart in the source and are kept apart here.
Tests used:
[1] = test system: EVSA-T (human breast carcinoma); test: Anti-proliferative activity, Alamar Blue assay, EVSA-T; type: cell-based
[2] = target: T1, BIR3 domain of human cIAP-1 (Homo sapiens, UniProt Q13490); test: cIAP-1 in vitro competitive displacement binding assay (fluorescence polarization); conditions: PI at […]; 180 min; dihydrochloride, […]
T1 construct: human cIAP-1 (residues 267-363) fused to a GST-tag; GST-tag (cleaved yes); made in house; host or cells: Escherichia coli
T1 sequence (Q13490 267-363): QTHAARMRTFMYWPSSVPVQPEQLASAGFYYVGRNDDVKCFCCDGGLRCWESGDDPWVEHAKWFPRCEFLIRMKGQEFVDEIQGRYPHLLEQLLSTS

[3] = target: T2, BIR3 domain of human XIAP (Homo sapiens, UniProt P98170); test: XIAP in vitro competitive displacement binding assay (fluorescence polarization); conditions: for inhibition at 0.04 µM: 1 h, read-out: Xiap IC50 or PI μM (PI)
T2 construct: BIR3 domain of human XIAP (residues 252-350) fused to a His-tag; His-tag (cleaved yes); made in house; host or cells: Escherichia coli
T2 sequence (P98170 252-350): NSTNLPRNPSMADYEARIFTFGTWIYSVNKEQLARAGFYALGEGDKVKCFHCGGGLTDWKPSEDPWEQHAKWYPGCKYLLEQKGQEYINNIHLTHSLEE

[4] = EVSA-T cells, 72 hours, Alamar Blue, dihydrochloride, read-out: EVSA-T prolif
[5] = Homo sapiens, EVSA-T, 72 h, EVSA-T cells, 72 hours, Alamar Blue, read-out: EVSA-T prolif
[6] = Homo sapiens, EVSA-T, read-out: EC50 in EVSA-T cell line assays
[7] = plain number = IC50, average where more than one data point, read-out: Xiap IC50 or PI μM (IC50)

Compound | EC50 [1, 5] [nM] | EC50 [1, 6] [nM] | inhibition at 0.04 µM ([3]; PI at 0.04 μM) [%] | further results
C[C@@H]1CN(CC(=O)N2CC(C)(C)c3ncc(C(O)c4cccc(F)c4)cc32)[C@@H](CN2[C@H](C)COC[C@H]2C)CN1 (single isomer, unassigned) [Example 106, 2-[(2R,5R)-2-{[(3R,5R)-3,5-Dimethylmorpholin-4-yl]methyl}-5-methylpiperazin-1-yl]-1-{6-[(R or S)-(3-fluorophenyl)-(hydroxy)methyl]-3,3-dimethyl-1H,2H,3H-pyrrolo[3,2-b]pyridin-1-yl}ethan-1-one dihydrochloride] |  |  |  | EC50 [1, 4]: 4.3 nM; cIAP1 IC50 or PI μM (PI) [2]: 88%@0.012; Xiap IC50 or PI μM (PI) ([3]; PI at 0.04 μM, 60 min, dihydrochloride, 0.04 µM): 42%@0.04
C[C@@H]1CN(CC(=O)N2CC(C)(C)c3ncc(Cc4ccc(F)cc4)cc32)[C@@H](CN2CCOCC2(C)C(=O)O)CN1 (stereo partly drawn) [Example 59, 4-{[(2R,5R)-1-(2-{6-[(4-Fluorophenyl)methyl]-3,3-dimethyl-1H,2H,3H-pyrrolo[3,2-b]pyridin-1-yl}-2-oxoethyl)-5-methylpiperazin-2-yl]methyl}-3-methylmorpholine-3-carboxylic acid, dihydrochloride] | 42 | < 1000 |  | IC50 [3, 7]: 0.34 µM
C[C@@H]1CN(CC(=O)N2CC(C)(C)c3ncc(Cc4ccc(F)cc4)cc32)[C@@H](CN2CC3CCC(C2)O3)CN1 [Example 18, 1-{6-[(4-Fluorophenyl)methyl]-3,3-dimethyl-1H,2H,3H-pyrrolo[3,2-b]pyridin-1-yl}-2-[(2R,5R)-5-methyl-2-{8-oxa-3-azabicyclo[3.2.1]octan-3-ylmethyl}piperazin-1-yl]ethan-1-one dihydrochloride] | 1.8 | < 1000 | 35 | 
C[C@@H]1CN(CC(=O)N2CC(C)(C)c3ncc(Cc4ccc(F)cc4)cc32)[C@@H](CN2C[C@@H](C)N[C@@H](C)C2)CN1 [Example 22, 2-[(2R,5R)-2-{[(3R,5S)-3,5-Dimethylpiperazin-1-yl]methyl}-5-methylpiperazin-1-yl]-1-{6-[(4-fluorophenyl)methyl]-3,3-dimethyl-1H,2H,3H-pyrrolo[3,2-b]pyridin-1-yl}ethan-1-one dihydrochloride] | 30 | < 1000 | 40 | 
C[C@@H]1CN(CC(=O)N2CC(C)(C)c3cnc(Cc4ccc(F)cc4F)cc32)[C@@H](CN2CCOC[C@]2(C)CO)CN1 (single isomer, unassigned) [Example 66, dihydrochloride] | 0.8 | < 1000 | 78 | 
C[C@@H]1CN(CC(=O)N2CC(C)(C)c3ncc(Cc4ccc(F)cc4)cc32)[C@@H](CN2CCC[C@@H]2C(F)(F)F)CN1 [Example 38, 1-{6-[(4-Fluorophenyl)methyl]-3,3-dimethyl-1H,2H,3H-pyrrolo[3,2-b]pyridin-1-yl}-2-[(2R,5R)-5-methyl-2-{[(2R)-2-(trifluoromethyl)pyrrolidin-1-yl]methyl}piperazin-1-yl]ethan-1-one] | 34 | < 1000 |  | IC50 [3, 7]: 0.48 µM
CCCC(F)(F)c1cc2c(cn1)C(C)(C)CN2C(=O)CN1C[C@@H](C)NC[C@@H]1CN1[C@H](C)COC[C@H]1C [Example 44, 1-[6-(1,1-Difluorobutyl)-3,3-dimethyl-1H,2H,3H-pyrrolo[3,2-c]pyridin-1-yl]-2-[2R,5R)-2-{[(3R,5R)-3,5-dimethylmorpholin-4-yl]methyl}-5-methylpiperazin-1-yl]ethan-1-one, dihydrochloride] | 1 | < 1000 | 78 | 
C[C@@H]1CN(CC(=O)N2CC(C)(C)c3ncc(C(O)c4cccc(F)c4)cc32)[C@@H](CN2[C@H](C)COC[C@H]2C)CN1 (single isomer, unassigned) [Example 105, 2-[(2R,5R)-2-{[(3R,5R)-3,5-Dimethylmorpholin-4-yl]methyl}-5-methylpiperazin-1-yl]-1-{6-[(R or S)-(3-fluorophenyl)-(hydroxy)methyl]-3,3-dimethyl-1H,2H,3H-pyrrolo[3,2-b]pyridin-1-yl}ethan-1-one dihydrochloride] |  | < 1000 | 60 | EC50 [1, 4]: 35 nM
C[C@@H]1CN(CC(=O)N2CC(C)(C)c3ncc(Cc4ccc(F)cc4)cc32)[C@@H](CN2CCOCC2C(F)(F)F)CN1 (single isomer, unassigned) [Example 25, 1-{6-[(4-Fluorophenyl)methyl]-3,3-dimethyl-1H,2H,3H-pyrrolo[3,2-b]pyridin-1-yl}-2-[(2R,5R)-5-methyl-2-{[3-([R or S]trifluoromethyl)morpholin-4-yl]methyl}piperazin-1-yl]ethan-1-one hydrochloride] |  | < 1000 |  | EC50 ([1]; EVSA-T cells, 72 hours, Alamar Blue, hydrochloride, read-out: EVSA-T prolif): 1.2 nM; IC50 [3, 7]: 0.12 µM
C[C@@H]1CN(CC(=O)N2CC(C)(C)c3ncc(Cc4ccc(F)cc4)cc32)[C@@H](CN2CCCC(F)(F)C2)CN1 [Example 3, 2-[(2R,5R)-2-[(3,3-Difluoropiperidin-1-yl)methyl]-5-methylpiperazin-1-yl]-1-{6-[(4-fluorophenyl)methyl]-3,3-dimethyl-1H,2H,3H-pyrrolo[3,2-b]pyridin-1-yl}ethan-1-one dihydrochloride] | 6.8 | < 1000 | 37 | 
C[C@@H]1CN(CC(=O)N2CC(C)(C)c3ncc(Cc4ccc(F)cc4)cc32)[C@@H](CN2CCC[C@H]2CO)CN1 [Example 12, 1-{6-[(4-Fluorophenyl)methyl]-3,3-dimethyl-1H,2H,3H-pyrrolo[3,2-b]pyridin-1-yl}-2-[(2R,5R)-2-{[(2S)-2-(hydroxymethyl)pyrrolidin-1-yl]methyl}-5-methylpiperazin-1-yl]ethan-1-one dihydrochloride] | 1.6 | < 1000 |  | IC50 [3, 7]: 0.15 µM
CCCC(O)c1cnc2c(c1)N(C(=O)CN1C[C@@H](C)NC[C@@H]1CN1[C@H](C)COC[C@H]1C)CC2(C)C (single isomer, unassigned) [Example 101, 2-[(2R,5R)-2-{[(3R,5R)-3,5-Dimethylmorpholin-4-yl]methyl}-5-methylpiperazin-1-yl]-1-[6-(1-(R or S)-hydroxybutyl)-3,3-dimethyl-1H,2H,3H-pyrrolo[3,2-b]pyridin-1-yl]ethan-1-one dihydrochloride] | 31 | < 1000 | 47 | 
C[C@@H]1CN(CC(=O)N2CC(C)(C)c3ncc(Cc4ccc(F)cc4F)cc32)[C@@H](CN2CCOC[C@@]2(C)CO)CN1 [Example 58, 1-{6-[(2,4-Difluorophenyl)methyl]-3,3-dimethyl-1H,2H,3H-pyrrolo[3,2-b]pyridin-1-yl}-2-[(2R,5R)-2-{[(3R)-3-(hydroxymethyl)-3-methylmorpholin-4-l]methyl}-5-methylpiperazin-1-yl]ethan-1-one, dihydrochloride] | 0.7 | < 1000 | 51 | IC50 ([3]; or at least 50% inhibition of the activity at 0.1 μM, read-out: IC50 in the XIAP assay): < 0.1 µM
C[C@@H]1CN(CC(=O)N2CC(C)(C)c3nnc(Cc4ccc(F)cc4F)cc32)[C@@H](CN2[C@H](C)COC[C@H]2C)CN1 [Example 88, 1-{3-[(2,4-Difluorophenyl)methyl]-7,7-dimethyl-5H,6H,7H-pyrrolo[3,2-c]pyridazin-5-yl}-2-[(2R,5R)-2-{[(3R,5R)-3,5-dimethymorpholin-4-yl]methyl}-5-methylpiperazin-1-yl]ethan-1-one dihydrochloride] | 0.24 | < 1000 |  | IC50 [3, 7]: 0.22 µM
C[C@@H]1CN(CC(=O)N2CC(C)(C)c3ncc(Cc4ccc(F)cc4)cc32)[C@@H](CN2CCOC[C@@]2(C)CO)CN1 [Example 51, 1-{6-[(4-Fluorophenyl)methyl]-3,3-dimethyl-1H,2H,3H-pyrrolo[3,2-b]pyridin-1-yl}-2-[(2R,5R)-2-{[(3R)-3-(hydroxymethyl)-3-methylmorpholin-4-yl]methyl}-5-methylpiperazin-1-yl]ethan-1-one, dihydrochloride] | 2.2 | < 1000 | 44 | 
C[C@@H]1CN(CC(=O)N2CC(C)(C)c3cnc(Cc4ccc(F)cc4)cc32)[C@@H](CN2[C@H](C)COC[C@H]2C)CN1 [Example 55, 2-[(2R,5R)-2-{[(3R,5R)-3,5-Dimethylmorpholin-4-yl]methyl}-5-methylpiperazin-1-yl]-1-{6-[(4-fluorophenyl)methyl]-3,3-dimethyl-1H,2H,3H-pyrrolo[3,2-c]pyridin-1-yl}ethan-1-one, dihydrochloride] | 0.23 | < 1000 | 59 | 
CC(=O)N1CCN(C[C@H]2CN[C@H](C)CN2CC(=O)N2CC(C)(C)c3ncc(Cc4ccc(F)cc4)cc32)[C@H](C)C1 [Example 52, 2-[(2R,5R)-2-{[(2R)-4-Acetyl-2-methylpiperazin-1-yl]methyl}-5-methylpiperazin-1-yl]-1-{6-[(4-fluorophenyl)methyl]-3,3-dimethyl-1H,2H,3H-pyrrolo[3,2-b]pyridin-1-yl}ethan-1-one, dihydrochloride] | 1 | < 1000 | 49 | 
COC[C@]1(C)COCCN1C[C@H]1CN[C@H](C)CN1CC(=O)N1CC(C)(C)c2cnc(Cc3ccc(F)cc3F)cc21 [Example 97, 1-{6-[(2,4-Difluorophenyl)methyl]-3,3-dimethyl-1H,2H,3H-pyrrolo[3,2-c]pyridin-1-yl}-2-[(2R,5R)-2-{[(3R)-3-(methoxymethyl)-3-methylmorpholin-4-yl]methyl}-5-methylpiperazin-1-yl]ethan-1-one dihydrochloride] | 2.3 | < 1000 | 44 | 
